Reference: the supplement of paper PMC10307832

Key:
Assay in all cases: relative viability (nuclei count vs DMSO), 5 days (fraction); higher = more cells survive
GW-2580 + Vorinostat = compound: COC1=CC=C(C=C1)COC2=C(C=C(C=C2)CC3=CN=C(N=C3N)N)OC [GW-2580] + O=C(CCCCCCC(=O)Nc1ccccc1)NO [Vorinostat] (partner 1 µM)
Summary of the method: (§1)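 Lung cancer cell lines, seeded in 1536-well plates, were treated the following day by pin tool with a single drug or with five library-drug doses (not always all listed) in √10 steps on top of a fixed anchor-drug dose. Cells were fixed and nuclei stained in one step after 5 days, and nuclei were counted. Relative viability is the nuclei count for treated wells divided by that for vehicle wells, reported as medians of duplicate plates.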

Fedratinib + Dasatinib = compound: Cc1cnc(Nc2ccc(OCCN3CCCC3)cc2)nc1Nc1cccc(S(=O)(=O)NC(C)(C)C)c1 [Fedratinib] + Cc1nc(Nc2ncc(C(=O)Nc3c(C)cccc3Cl)s2)cc(N2CCN(CCO)CC2)n1 [Dasatinib] (partner 0.075 µM)
Summary of the method: as §1

GW-2580 + Lapatinib = compound: COC1=CC=C(C=C1)COC2=C(C=C(C=C2)CC3=CN=C(N=C3N)N)OC [GW-2580] + CS(=O)(=O)CCNCc1ccc(-c2ccc3ncnc(Nc4ccc(OCc5cccc(F)c5)c(Cl)c4)c3c2)o1 [Lapatinib] (partner 2 µM)
Summary of the method: as §1

GW-2580 + Navitoclax = compound: COC1=CC=C(C=C1)COC2=C(C=C(C=C2)CC3=CN=C(N=C3N)N)OC [GW-2580] + CC1(C)CCC(c2ccc(Cl)cc2)=C(CN2CCN(c3ccc(C(=O)NS(=O)(=O)c4ccc(N[C@H](CCN5CCOCC5)CSc5ccccc5)c(S(=O)(=O)C(F)(F)F)c4)cc3)CC2)C1 [Navitoclax] (partner 0.5 µM)
Summary of the method: as §1

Fedratinib + Luminespib = compound: Cc1cnc(Nc2ccc(OCCN3CCCC3)cc2)nc1Nc1cccc(S(=O)(=O)NC(C)(C)C)c1 [Fedratinib] + CCNC(=O)c1noc(-c2cc(C(C)C)c(O)cc2O)c1-c1ccc(CN2CCOCC2)cc1 [Luminespib] (partner 0.01 µM)
Summary of the method: as §1

Cell Line | relative viability (GW-2580 + Vorinostat; first compound 0.08 µM) | relative viability (GW-2580 + Vorinostat; first compound 0.8 µM) | relative viability (GW-2580 + Vorinostat; first compound 2.53 µM) | relative viability (GW-2580 + Vorinostat; first compound 8 µM) | relative viability (Fedratinib + Dasatinib; first compound 0.1 µM) | relative viability (Fedratinib + Dasatinib; first compound 0.3162 µM) | relative viability (Fedratinib + Dasatinib; first compound 1 µM) | relative viability (GW-2580 + Lapatinib; first compound 0.08 µM) | relative viability (GW-2580 + Lapatinib; first compound 0.8 µM) | relative viability (GW-2580 + Lapatinib; first compound 2.53 µM) | relative viability (GW-2580 + Lapatinib; first compound 8 µM) | relative viability (GW-2580 + Navitoclax; first compound 0.08 µM) | relative viability (GW-2580 + Navitoclax; first compound 0.8 µM) | relative viability (GW-2580 + Navitoclax; first compound 2.53 µM) | relative viability (GW-2580 + Navitoclax; first compound 8 µM) | relative viability (Fedratinib + Luminespib; first compound 0.1 µM) | relative viability (Fedratinib + Luminespib; first compound 0.3162 µM) | relative viability (Fedratinib + Luminespib; first compound 1 µM)
HOP-62 | 0.736 | 0.73 | 0.539 | 0.731 | 0.739 | 0.6 | 0.503 | 0.856 | 0.986 | 0.997 | 1.12 | 1.15 | 1.05 | 0.984 | 1.26 | 0.958 | 0.924 | 0.908
HARA | 0.561 | 0.601 | 0.548 | 0.588 | 0.217 | 0.155 | 0.24 | 0.757 | 0.902 | 0.535 | 0.63 | 1.15 | 1.18 | 1.28 | 0.896 | 0.103 | 0.766 | 0.539
NCI-H838 | 0.789 | 0.782 | 0.691 | 0.771 | 0.281 | 0.29 | 0.239 | 0.994 | 1.11 | 0.789 | 0.987 | 1.09 | 1.2 | 1.03 | 1.36 | 0.454 | 0.379 | 0.334
NCI-H1755 | 1.03 | 0.77 | 0.7 | 0.748 | 0.351 | 0.404 | 0.39 | 1.12 | 1.28 | 0.94 | 0.96 | 1.04 | 1.04 | 0.894 | 0.831 | 0.367 | 0.595 | 0.381
HCC-78 | 0.461 | 0.441 | 0.389 | 0.39 | 0.384 | 0.309 | 0.306 | 0.917 | 1.37 | 0.439 | 0.752 | 0.879 | 1.07 | 0.631 | 0.801 |  |  | 
IA-LM |  | 1.21 | 0.851 | 1.07 |  |  |  | 0.997 | 0.862 | 0.572 | 0.876 | 0.895 | 0.88 | 0.723 | 0.782 |  |  | 
NCI-H650 | 0.512 | 0.502 | 0.349 | 0.416 | 0.378 | 0.434 | 0.394 | 0.93 | 1.09 | 0.801 | 0.864 |  |  |  |  | 0.706 | 0.733 | 0.796
NCI-H1792 |  |  |  |  | 0.619 | 0.765 | 0.81 | 0.936 | 1.1 | 0.484 | 1.1 | 0.534 | 0.816 | 0.26 | 0.668 | 0.231 | 0.419 | 0.362
ChaGo-K-1 | 0.743 | 0.726 | 0.768 | 0.794 | 0.515 | 0.437 | 0.496 |  |  |  |  | 1.04 | 1.34 | 0.926 | 1.01 | 0.61 | 0.548 | 0.561
NCI-H2342 | 0.711 | 0.75 | 0.625 | 0.751 | 0.314 | 0.309 | 0.273 |  |  |  |  |  |  |  |  | 0.695 | 0.874 | 0.837
NCI-H1299 |  |  |  |  |  |  |  | 1.04 | 0.979 | 0.959 | 0.886 | 1.09 | 1.06 | 1.06 | 0.97 |  |  | 
SW 900 | 0.53 | 0.517 | 0.419 | 0.528 | 0.498 | 0.51 | 0.643 |  |  |  |  |  |  |  |  | 0.147 | 0.171 | 0.167
NCI-H1648 | 0.761 |  | 0.541 | 0.496 |  |  |  |  |  |  |  |  |  |  |  |  |  | 
NCI-H522 | 0.976 | 0.862 | 0.861 | 0.986 | 0.88 | 1.05 | 0.599 |  |  |  |  |  |  |  |  | 1.14 | 1.21 | 1.14
HCC-366 | 0.344 | 0.395 | 0.342 | 0.357 | 0.601 | 0.595 | 0.428 | 1.08 | 1.02 | 0.977 | 1.19 | 1.27 | 1.17 | 1.13 | 1.11 |  |  | 
A549 |  |  |  |  |  |  |  | 1.11 | 1.04 | 0.89 | 0.869 | 1.38 | 1.25 | 1.12 | 0.918 |  |  | 
NCI-H661 | 0.86 | 0.801 | 0.767 | 0.632 | 0.83 | 0.912 | 0.612 | 0.448 | 0.647 | 0.378 | 0.459 |  |  |  |  | 0.925 | 0.969 | 0.846
NCI-H1563 |  |  |  |  | 0.504 | 0.44 | 0.429 | 0.895 | 0.857 | 0.831 | 0.863 |  |  |  |  | 0.472 | 0.504 | 0.516
ABC-1 | 0.972 | 1.17 | 1.06 | 0.98 | 0.499 | 0.629 | 0.569 | 1.42 | 1.03 |  | 1.18 |  |  |  |  | 0.415 | 0.655 | 0.607
LCLC-103H | 0.753 | 0.851 | 0.791 | 0.671 | 0.492 | 0.294 | 0.511 |  |  |  |  |  |  |  |  | 0.9 | 0.946 | 0.937
NCI-H441 | 0.913 | 0.951 | 0.68 | 0.783 | 0.618 | 0.314 | 0.493 |  |  |  |  | 1.03 | 0.33 | 0.575 | 0.515 | 0.331 | 0.262 | 0.343
